Several values for one entry are separate records, joined by “and”; a condition that tells them apart may be missing. Equal values may be shown once. Read-outs that look alike come from different tables or passages of the source.
Assays:
[1] = Sirolimus content of rabbit iliac arteries after inflation of sirolimus coated balloons; type: in vivo
Description: GHOST Rapid Exchange (Rx) Catheter was used in this example. Ghost 3.0×18 mm Rx catheter balloons were coated and used in animal study
A. Expansion in rabbit iliac arteries: 8 balloons (4 rabbits)
(§1) • 4 balloons—Balloons inflated in pre-dilated arteries (right iliac) for 60 seconds • 4 balloons—Balloons inflated in non-dilated arteries (left iliac) for 60 seconds B. Tracking Studies: 4 balloons (1 rabbit) • 4 balloons—Balloons inserted and not inflated in aorta for 2 min, then removed C. Sirolimus Quantification • Sirolimus content from: 8 balloons inflated in rabbit iliac arteries 4 balloons not inflated in rabbit aorta 8 rabbit iliac arteries (after balloon inflation) 8 whole blood samples (2 samples/rabbit) • Liver, kidney, spleen, heart, lung: stored (−80° C.) for later drug analysis Sirolimus Concentrations in Rabbit Iliac Arteries
• Drug coated balloons in right iliac arteries inflated/deflated—10-20 min before sacrifice • Drug coated balloons in left iliac arteries inflated/deflated—5-15 min before sacrifice Transfer Efficiency of Sirolimus to Rabbit Iliac Arteries
• Balloons inflated for 1 min in respective iliac arteries • % Sirolimus transferred to artery based on balloon batch average from UV-Vis data • Estimated time artery exposed to blood flow is time after balloon inflation

[2] = Sirolimus concentrations in whole blood samples after balloon inflation; type: in vivo, rabbit; conditions: for Est. Total Sirolimus in Blood: based on 56 mL per kg
Description: as §1
• Baseline samples taken before balloon inflation • After 2nd balloon inflation, blood samples were taken 5-15 min later • 5-15 min samples are the cumulative Sirolimus concentration from the inflation of 2 drug coated balloons per animal Total Sirolimus in blood based on 56 mL per kg Sirolimus Concentrations on Drug Coated Balloons (Rabbits)

[3] = Combined Right + Left Iliac Arteries, n = 8

**Q.** Which “Average Sirolimus” value [1, 3] does the source give for CO[C@H]1C[C@@H]2CC[C@@H](C)[C@@](O)(O2)C(=O)C(=O)N2CCCC[C@H]2C(=O)O[C@H]([C@H](C)C[C@@H]2CC[C@@H](O)[C@H](OC)C2)CC(=O)[C@H](C)/C=C(\C)[C@@H](O)[C@@H](OC)C(=O)[C@H](C)C[C@H](C)/C=C/C=C/C=C/1C [Sirolimus, rapamycin] here?
**A.** 197.2 ± 85.3 ng/mg and 197.2 ng/mg

**Q.** What about the “Total Sirolimus per Artery Average” value [1, 3] of the same compound?
**A.** 4.7 µg

**Q.** And the “Total Sirolimus per Artery Average” value ([1]; Left Iliac (uninjured), n = 4)?
**A.** 3.9 µg

**Q.** What about the “Average Sirolimus” value ([1]; Left Iliac (uninjured), n = 4, coated balloon inflated 60 s, 5-15 min before sacrifice) of the same compound?
**A.** 216.1 ng/mg

**Q.** What about the “Total Sirolimus per Artery Average” value ([1]; Right Iliac (denuded), n = 4) of the same compound?
**A.** 5.4 µg

**Q.** What about the “Average Sirolimus” value ([1]; Right Iliac (denuded), n = 4, coated balloon inflated 60 s, 10-20 min before sacrifice) of the same compound?
**A.** 178.3 ng/mg

**Q.** And the “Total Sirolimus per Artery” value ([1]; average of the 8 balloons/arteries)?
**A.** 4.7 µg

**Q.** What about the “% Sirolimus Transferred to Artery” value ([1]; average of the 8 balloons/arteries, based on balloon batch average from UV-Vis data) of the same compound?
**A.** 7.8±2.8% and 7.8%

**Q.** And the “Est. Total Sirolimus in Blood” value ([2]; average of 4 rabbits (5-15 min))?
**A.** 5.4 ± 2.3 µg and 5.4 µg

**Q.** What about the “Est. Total Sirolimus in Blood” value ([2]; rabbit #1, 15 min) of the same compound?
**A.** 2.7 µg

**Q.** And the “Est. Total Sirolimus in Blood” value ([2]; rabbit #2, 5 min)?
**A.** 8.2 µg

**Q.** And the “Est. Total Sirolimus in Blood” value ([2]; rabbit #3, 5 min)?
**A.** 5.9 µg

**Q.** What about the “Est. Total Sirolimus in Blood” value ([2]; rabbit #4, 10 min) of the same compound?
**A.** 4.8 µg

**Q.** And the concentration at 15 min ([2]; rabbit, whole blood, rabbit #1, 15 min after 2nd balloon inflation, cumulative of 2 coated balloons, read-out: Extraction Conc.)?
**A.** 11.4 ng/mL

**Q.** What about the concentration at 5 min ([2]; rabbit, whole blood, rabbit #2, 5 min after 2nd balloon inflation, cumulative of 2 coated balloons, read-out: Extraction Conc.) of the same compound?
**A.** 30.8 ng/mL

**Q.** What about the concentration at 5 min ([2]; rabbit, whole blood, rabbit #3, 5 min after 2nd balloon inflation, cumulative of 2 coated balloons, read-out: Extraction Conc.) of the same compound?
**A.** 22.2 ng/mL

**Q.** And the concentration at 10 min ([2]; rabbit, whole blood, rabbit #4, 10 min after 2nd balloon inflation, cumulative of 2 coated balloons, read-out: Extraction Conc.)?
**A.** 19.3 ng/mL

**Q.** And the “Extraction Conc.” value ([2]; whole blood, average of 4 rabbits (5-15 min))?
**A.** 20.9 ng/mL
